Molecules are shown by their SMILES. pEC50: −log10 of the molar value.

Consider 23 molecules from US10961198B2, “Farnesoid X receptor agonists and uses thereof” (Metacrine, Inc., priority 2017, dated 2021).

Chain of hFXR (Q96RI1 whole entry): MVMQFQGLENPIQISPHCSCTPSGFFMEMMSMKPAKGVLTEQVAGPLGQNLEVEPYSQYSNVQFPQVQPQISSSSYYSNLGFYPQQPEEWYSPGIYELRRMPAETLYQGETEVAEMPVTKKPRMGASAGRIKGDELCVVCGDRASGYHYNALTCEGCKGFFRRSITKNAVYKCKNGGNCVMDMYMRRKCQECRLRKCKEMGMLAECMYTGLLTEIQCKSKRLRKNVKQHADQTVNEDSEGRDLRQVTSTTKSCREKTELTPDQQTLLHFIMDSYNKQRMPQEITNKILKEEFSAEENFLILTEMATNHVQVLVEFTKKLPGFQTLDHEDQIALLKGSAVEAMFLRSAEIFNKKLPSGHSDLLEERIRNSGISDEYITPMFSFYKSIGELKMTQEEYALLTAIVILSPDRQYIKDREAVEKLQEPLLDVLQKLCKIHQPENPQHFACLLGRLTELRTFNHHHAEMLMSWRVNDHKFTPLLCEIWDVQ
Chain of hFXR (P19793 whole entry partner): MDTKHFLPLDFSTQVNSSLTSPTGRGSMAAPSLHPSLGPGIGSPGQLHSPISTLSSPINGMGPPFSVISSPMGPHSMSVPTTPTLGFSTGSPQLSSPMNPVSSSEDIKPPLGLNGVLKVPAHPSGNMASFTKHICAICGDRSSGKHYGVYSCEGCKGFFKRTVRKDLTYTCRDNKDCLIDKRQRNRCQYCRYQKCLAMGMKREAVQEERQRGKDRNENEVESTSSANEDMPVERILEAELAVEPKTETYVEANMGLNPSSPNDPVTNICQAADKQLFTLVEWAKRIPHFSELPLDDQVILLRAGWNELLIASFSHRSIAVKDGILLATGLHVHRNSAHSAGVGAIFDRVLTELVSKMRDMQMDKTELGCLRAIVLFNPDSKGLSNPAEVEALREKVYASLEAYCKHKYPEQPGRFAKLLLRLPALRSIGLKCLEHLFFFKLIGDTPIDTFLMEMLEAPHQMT

This experiment deals with hFXR (Homo sapiens (Human), UniProt Q96RI1). In words: In Vitro FXR Assay (TK). The conditions noted are these: CV-1 cells transfected with hFXR, hRXR, TK-ECRE-luc and pCMX-YFP; incubated 18 hrs; luminescence; maximum efficacy <25% of the Fexarmine control classified as '+'. In kind it is cell-based. How it is done:
Example B-1: In Vitro FXR Assay (TK)
CV-1 cells were seeded at a density of 2,000,000 cells in a T175 flask with DMEM+10% charcoal double-stripped FBS and incubated at 37° C. in 5% CO2 for 18 h (O/N).
After 18 h of incubation, the medium in the T175 flask was changed with fresh DMEM+10% charcoal super-stripped serum. In a polypropylene tube, 2500 μL OptiMEM (Life Technologies, Cat #31985-062) was combined with expression plasmids for hFXR, hRXR, TK-ECRE-luc and pCMX-YFP. The tube was then briefly vortexed and incubated at room temperature for 5 minutes. Transfection reagent (X-tremeGENE HP from Roche, Cat #06 366 236 001) was added to the OptiMEM/plasmid mixture vortexed and incubated at room temperature for 20 minutes. Following incubation, the transfection reagent/DNA mixture complex was added to cells in the T175 flask and the cells were incubated at 37° C. in 5% CO2 for 18 h (O/N).
Compounds were serially diluted in DMSO and added to transfected CV-1 cells. The cells were then incubated for 18 hrs. The next day cells were lysed and examined for luminescence.
For `COc1ccc([C@H]2CC[C@H](CN(c3cccc(-c4cnn(C5CCC5)c4)c3)C(=O)[C@H]3CC[C@H](O)CC3)CC2)cc1C` [Compound 3.08, trans-N-(3-(1-Cyclobutyl-1H-pyrazol-4-yl)phenyl)-4-hydroxy-N-((trans-4-(4-methoxy-3-methylphenyl)cyclohexyl)methyl)cyclohexanecarboxamide], the pEC50 (in general, the negative decadic logarithm of the EC50, by convention in mol/L) is at least 6.60. For `COc1ccc([C@H]2CC[C@H](CN(c3cccc(-c4cnn(C5COC5)c4)c3)C(=O)[C@H]3CC[C@H](O)CC3)CC2)cc1C` [Compound 3.09, trans-4-Hydroxy-N-((trans-4-(4-methoxy-3-methylphenyl)cyclohexyl)methyl)-N-(3-(1-(oxetan-3-yl)-1H-pyrazol-4-yl)phenyl)cyclohexanecarboxamide], the pEC50 was at least 6.60. The figure for `COc1ccc([C@H]2CC[C@H](CN(c3cccc(-c4cnn(C5CCOCC5)c4)c3)C(=O)[C@H]3CC[C@H](O)CC3)CC2)cc1C` [Compound 3.10, trans-4-Hydroxy-N-((trans-4-(4-methoxy-3-methylphenyl)cyclohexyl)methyl)-N-(3-(1-(tetrahydro-2H-pyran-4-yl)-1H-pyrazol-4-yl)phenyl)cyclohexanecarboxamide] is at least 6.60. Take `COc1ccc([C@H]2CC[C@H](CN(c3cccc(-c4cnn(C(F)F)c4)c3)C(=O)[C@H]3CC[C@H](O)CC3)CC2)cc1C` [Compound 3.11, trans-N-(3-(1-(Difluoromethyl)-1H-pyrazol-4-yl)phenyl)-4-hydroxy-N-((trans-4-(4-methoxy-3-methylphenyl)cyclohexyl)methyl)cyclohexanecarboxamide]: the negative logarithm of the EC50 (pEC50) is at least 6.60. Turning to `COc1ccc([C@H]2CC[C@H](CN(c3cccc(-c4cnn(CCF)c4)c3)C(=O)[C@H]3CC[C@H](O)CC3)CC2)cc1C` [Compound 3.12, trans-N-(3-(1-(2-Fluoroethyl)-1H-pyrazol-4-yl)phenyl)-4-hydroxy-N-((trans-4-(4-methoxy-3-methylphenyl)cyclohexyl)methyl)cyclohexanecarboxamide], the pEC50 was at least 6.60. The figure for `CCC(C)n1cc(-c2cccc(N(C[C@H]3CC[C@H](c4ccc(OC)c(C)c4)CC3)C(=O)[C@H]3CC[C@H](O)CC3)c2)cn1` (stereo partly drawn) [Compound 3.13, trans-N-(3-(1-(sec-Butyl)-1H-pyrazol-4-yl)phenyl)-4-hydroxy-N-((trans-4-(4-methoxy-3-methylphenyl)cyclohexyl)methyl)cyclohexanecarboxamide] is at least 6.60.

`COc1ccc([C@H]2CC[C@H](CN(c3cccc(C#Cc4cnn(C)c4)c3)C(=O)[C@H]3CC[C@H](O)CC3)CC2)cc1C` [Compound 4, trans-4-Hydroxy-N-((trans-4-(4-methoxy-3-methylphenyl)cyclohexyl)methyl)-N-(3-((1-methyl-1H-pyrazol-4-yl)ethynyl)phenyl)cyclohexanecarboxamide] gave a pEC50 of at least 6.60. The figure for `COc1ccc([C@H]2CC[C@H](CN(c3cccc(C#Cc4cn[nH]c4)c3)C(=O)[C@H]3CC[C@H](O)CC3)CC2)cc1C` [Compound 4.01, trans-N-(3-((1H-Pyrazol-4-yl)ethynyl)phenyl)-4-hydroxy-N-((trans-4-(4-methoxy-3-methylphenyl)cyclohexyl)methyl)cyclohexanecarboxamide] is at least 6.60; for `COc1ccc([C@H]2CC[C@H](CN(c3cccc(C#Cc4ccn(C)n4)c3)C(=O)[C@H]3CC[C@H](O)CC3)CC2)cc1C` [Compound 4.02, trans-4-Hydroxy-N-((trans-4-(4-methoxy-3-methylphenyl)cyclohexyl)methyl)-N-(3-((1-methyl-1H-pyrazol-3-yl)ethynyl)phenyl)cyclohexanecarboxamide] it is at least 6.60. Turning to `COc1ccc([C@H]2CC[C@H](CN(c3cccc(C#Cc4cc[nH]n4)c3)C(=O)[C@H]3CC[C@H](O)CC3)CC2)cc1C` [Compound 4.03, trans-N-(3-((1H-Pyrazol-3-yl)ethynyl)phenyl)-4-hydroxy-N-((trans-4-(4-methoxy-3-methylphenyl)cyclohexyl)methyl)cyclohexanecarboxamide], the pEC50 is at least 6.60.

As for `Cn1nc(F)c2cc([C@H]3CC[C@H](CN(c4cccc(-c5cnn(C6CC6)c5)c4)C(=O)[C@H]4CC[C@H](O)CC4)CC3)ccc21` [Compound 5, trans-N-(3-(1-Cyclopropyl-1H-pyrazol-4-yl)phenyl)-N-((trans-4-(3-fluoro-1-methyl-1H-indazol-5-yl)cyclohexyl)methyl)-4-hydroxycyclohexanecarboxamide], the pEC50 is at least 6.60. Turning to `COc1ccc([C@H]2CC[C@H](CN(c3cccc(-n4ccc(C)n4)c3)C(=O)[C@H]3CC[C@H](O)CC3)CC2)cc1C` [Compound 5.01, trans-4-Hydroxy-N-((trans-4-(4-methoxy-3-methylphenyl)cyclohexyl)methyl)-N-(3-(3-methyl-1H-pyrazol-1-yl)phenyl)cyclohexanecarboxamide], the negative logarithm of the EC50 (pEC50) is 6.00 to 6.60. The figure for `CN(C)c1ccc([C@H]2CC[C@H](CN(c3cccc(-c4cnn(C5CC5)c4)c3)C(=O)[C@H]3CC[C@H](O)CC3)CC2)cn1` [Compound 5.02, trans-N-(3-(1-Cyclopropyl-1H-pyrazol-4-yl)phenyl)-N-((trans-4-(6-(dimethylamino)pyridin-3-yl)cyclohexyl)methyl)-4-hydroxycyclohexanecarboxamide] is at least 6.60; for `COc1ccc([C@H]2CC[C@H](CN(c3cccc(-c4cnn(C5CC5)c4)c3)C(=O)[C@H]3CC[C@H](O)CC3)CC2)cc1Cl` [Compound 5.03, trans-N-((trans-4-(3-Chloro-4-methoxyphenyl)cyclohexyl)methyl)-N-(3-(1-cyclopropyl-1H-pyrazol-4-yl)phenyl)-4-hydroxycyclohexanecarboxamide] it is at least 6.60; for `COc1ccc([C@H]2CC[C@H](CN(c3cccc(-c4cnn(C5CC5)c4)c3)C(=O)[C@H]3CC[C@H](O)CC3)CC2)nc1C` [Compound 5.04, trans-N-(3-(1-cyclopropyl-1H-pyrazol-4-yl)phenyl)-4-hydroxy-N-((trans-4-(5-methoxy-6-methylpyridin-2-yl)cyclohexyl)methyl)cyclohexanecarboxamide] it is at least 6.60. `COc1ccc([C@H]2CC[C@H](CN(c3cccc(-c4cnn(C5CC5)c4)c3)C(=O)[C@H]3CC[C@H](O)CC3)CC2)nc1C#N` [Compound 5.05, trans-N-((trans-4-(6-Cyano-5-methoxypyridin-2-yl)cyclohexyl)methyl)-N-(3-(1-cyclopropyl-1H-pyrazol-4-yl)phenyl)-4-hydroxycyclohexanecarboxamide] gave a pEC50 of at least 6.60.

Molecule `O=C([C@H]1CC[C@H](O)CC1)N(C[C@H]1CC[C@H](c2ccc3c(c2)OCO3)CC1)c1cccc(-c2cnn(C3CC3)c2)c1` [Compound 5.06, trans-N-((trans-4-(Benzo[d][1,3]dioxol-5-yl)cyclohexyl)methyl)-N-(3-(1-cyclopropyl-1H-pyrazol-4-yl)phenyl)-4-hydroxycyclohexanecarboxamide] showed a pEC50 of at least 6.60. In the case of `COc1ccc([C@H]2CC[C@H](CN(c3cccc(-c4cnn(C(C)C)c4)c3)C(=O)[C@H]3CC[C@H](O)CC3)CC2)nc1C` [Compound 5.07, trans-4-Hydroxy-N-(3-(1-isopropyl-1H-pyrazol-4-yl)phenyl)-N-((trans-4-(5-methoxy-6-methylpyridin-2-yl)cyclohexyl)methyl)cyclohexanecarboxamide], the negative logarithm of the EC50 (pEC50) was at least 6.60. Next, `COc1ccc([C@H]2CC[C@H](CN(c3cccc(-c4cnn(C(C)(C)C)c4)c3)C(=O)[C@H]3CC[C@H](O)CC3)CC2)cc1C` [Compound 5.08, trans-N-(3-(1-(tert-Butyl)-1H-pyrazol-4-yl)phenyl)-4-hydroxy-N-((trans-4-(4-methoxy-3-methylphenyl)cyclohexyl)methyl)cyclohexanecarboxamide]: at least 6.60.

`COc1ccc([C@H]2CC[C@H](CN(c3cc(-c4cnn(C5CC5)c4)ccn3)C(=O)[C@H]3CC[C@H](O)CC3)CC2)nc1C` [Compound 5.09, trans-N-(4-(1-Cyclopropyl-1H-pyrazol-4-yl)pyridin-2-yl)-4-hydroxy-N-((trans-4-(5-methoxy-6-methylpyridin-2-yl)cyclohexyl)methyl)cyclohexanecarboxamide] had a pEC50 of 6.00 to 6.60. The molecule `COc1ncc([C@H]2CC[C@H](CN(c3cccc(-c4cnn(C5CC5)c4)c3)C(=O)[C@H]3CC[C@H](O)CC3)CC2)cc1Cl` [Compound 5.10, trans-N-((trans-4-(5-chloro-6-methoxypyridin-3-yl)cyclohexyl)methyl)-N-(3-(1-cyclopropyl-1H-pyrazol-4-yl)phenyl)-4-hydroxycyclohexanecarboxamide] showed a pEC50 of at least 6.60. With `COc1ccc([C@H]2CC[C@H](CN(c3cc(-c4cnn(C(C)C)c4)ccn3)C(=O)[C@H]3CC[C@H](O)CC3)CC2)cc1C` [Compound 5.11, trans-4-Hydroxy-N-(4-(1-isopropyl-1H-pyrazol-4-yl)pyridin-2-yl)-N-((trans-4-(4-methoxy-3-methylphenyl)cyclohexyl)methyl)cyclohexanecarboxamide], the pEC50 was at least 6.60. Next, `COc1ncc([C@H]2CC[C@H](CN(c3cccc(-c4cnn(C5CC5)c4)c3)C(=O)[C@H]3CC[C@H](O)CC3)CC2)cc1C` [Compound 5.12, trans-N-(3-(1-Cyclopropyl-1H-pyrazol-4-yl)phenyl)-4-hydroxy-N-((trans-4-(6-methoxy-5-methylpyridin-3-yl)cyclohexyl)methyl)cyclohexanecarboxamide]: at least 6.60.
